Source: patent US20260365677A1, “NEW CONTRAST AGENTS FOR USE IN DIAGNOSTIC IMAGING” (Bayer Aktiengesellschaft, priority 2022, published 2026)

Key:
[1] = Relaxivity measurements at 1.41 T in water and human plasma; format: physicochemical; details: 37 °C, normalized to Gd
Description: Relaxivity measurements at 1.41 T were performed using a MiniSpec mq60 spectrometer (Bruker Analytik, Karlsruhe, Germany) operating at a resonance frequency of 60 MHz and a temperature of 37 °C. The T1 relaxation times were determined using the standard inversion recovery (IR) method with a fixed relaxation delay of at least 5×T1. The variable inversion time (TI) was calculated automatically by the standard software of the MiniSpec mq60 (8 steps). The T2 measurements were performed by using a Carr-Purcell-Meiboom-Gill (CPMG) pulse sequence, applying a relaxation delay of at least 5×T1.
Each relaxivity measurement was performed using three different Gd concentrations (3 concentrations between 0.05 and 2 mM). The T1 and T2 relaxation times of the example compounds 1 to 10 were measured in different media for example in water and human plasma. Human plasma preparation: For each experiment fresh blood was taken from a volunteer using 10 mL citrate-tubes (Sarstedt S-Monovette 02.1067.001, 10 mL, Citrate). The 10 mL citrate-tubes were carefully inverted 10 times to mix blood and anticoagulant and centrifuged for 15 min at 1811 g at RT (Eppendorf, Centrifuge 5810R).
The relaxivities ri (where i=1, 2) were calculated based on the measured relaxation rates R, in water and plasma:
where Ri(0) represent the relaxation rate of the respective solvent and CGd the concentration of the compound normalized to the Gadolinium. The Gadolinium concentrations of the investigated solutions were verified by Inductively Coupled Plasma Mass Spectrometry (ICP-MS Agilent 7500a, Waldbronn, Germany).

[2] = test system: freshly isolated rat hepatocytes; assay: Uptake into freshly isolated rat hepatocytes; format: cell-based; details: 100 μmol Gd/L, 10 min, 37 °C, relative to RC1 (Gd-EOB-DTPA)
Description: Triplicates were performed for each test item.

OATP1B3 = target: T1, OATP1B3 (Homo sapiens, UniProt Q9NPD5); assay: Uptake into stable transfected OATP1B3 HEK 293 cells; format: cell-based; details: 100 μM, 40 min, relative to RC1 (Gd-EOB-DTPA)
T1 construct: expressed in transfected cells
T1 sequence (Q9NPD5 1-702): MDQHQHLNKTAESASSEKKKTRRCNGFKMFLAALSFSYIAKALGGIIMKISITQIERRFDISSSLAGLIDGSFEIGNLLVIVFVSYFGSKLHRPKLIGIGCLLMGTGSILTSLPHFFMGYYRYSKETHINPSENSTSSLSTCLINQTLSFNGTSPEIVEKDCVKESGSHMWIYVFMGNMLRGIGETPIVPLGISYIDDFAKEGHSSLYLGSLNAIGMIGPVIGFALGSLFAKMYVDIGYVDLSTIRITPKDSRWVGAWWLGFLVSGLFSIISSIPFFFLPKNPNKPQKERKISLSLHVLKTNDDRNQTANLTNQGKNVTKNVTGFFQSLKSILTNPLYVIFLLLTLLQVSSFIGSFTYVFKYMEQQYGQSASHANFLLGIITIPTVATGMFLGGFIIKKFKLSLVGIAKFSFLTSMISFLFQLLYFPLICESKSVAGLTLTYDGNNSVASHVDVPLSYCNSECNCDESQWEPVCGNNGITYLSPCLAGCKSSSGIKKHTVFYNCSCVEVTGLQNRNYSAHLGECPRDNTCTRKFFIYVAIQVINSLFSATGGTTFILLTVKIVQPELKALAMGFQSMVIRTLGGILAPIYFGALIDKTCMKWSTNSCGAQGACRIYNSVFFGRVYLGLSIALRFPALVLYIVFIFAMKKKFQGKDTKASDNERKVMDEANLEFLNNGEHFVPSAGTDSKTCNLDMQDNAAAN
Description: Human transfected OATP1B3 human embryonic kidney 293 cells (OATP1B3 HEK 293, SLCO1B3, Entrez Gene ID: 28234) were used (Leonhardt M et al. Drug Metab Dispos. 2010 July; 38(7):1024-8). The following culture medium was used: 500 mL DMEM (Dulbecco's Modified Eagle Medium—high Glucose, D6429), 50 mL FCS (fetal bovine serum, Fa. Sigma, F7524), 5.8 mL G418 (Geneticin, Fa. Gibco 10131-027) and 5 mL Pen-Strep. (Penicillin-Streptomycin, Fa. Gibco, Ref 15140-122). Cryopreserved cells were shortly thawed in water bath and diluted in 10 mL warm culture medium (37 °C). After medium change the cells were grown for 3d in a 25 cm^2 cell culture flask. After 3 to 5d the cells were transferred into 75 cm^2 flasks. For the splitting of cells these were incubated with 1.5 mL trypsin (Trypsin-EDTA (1×) 0.05%, Ref 25300-054 100 ml, Fa. Gibco) for 3-5 min in the incubator (37 °C, 5% CO2 and 95% oxygen). After centrifugation and washing with medium the cells were counted (50 μL cell suspension and 50 μL trypan blue (Trypan Blue Solution, 93595-50 ml, Fa. Fluka). Cells were cultured (1×10^5 cells/well) in poly-D-lysine coated 24-well plates (Fa. Corning, Ref: 354414) in 1.5 mL medium per well. After 48 hours in the incubator the medium was changed and 1.5 mL/well sodium butyrate containing medium were added (40 mL culture medium plus 400 μL Na-Butyrate, Fa. Sigma Aldrich B5887-5G, 250 mg in 2.27 mL MilliQ water). After 24 hours in the incubator the medium was vacuumed off and 1.5 mL transport buffer was added and incubated for 10 min. The transport buffer contains the following ingredients: 500 mL HBSS (Hank's balanced salt solution, Hyclone, SH30268.01), 5 mL HEPES buffer (4-(2-hydroxyethyl)-1-piperazine-ethanesulfonic acid, Gibco 15630-056) and 3.9 mL glucose (Sigma, G8270-100, 90 g/200 mL MilliQ water). All test items were prepared in transport buffer at a final concentration of 100 μM from stock solutions (180 to 500 mM concentration). The OATP1B3 HEK 293 cells were incubated with test solutions (test item in transport buffer 500 μL) for 40 min on a thermoshaker without shaking (PHMP, Fa. Grant Bio). Triplicates were performed for each test item. After incubation the cells were washed with 2 mL of cold PBS (+) buffer (Dulbeccos PBS+, Fa. Gibco). […] As a reference standard Gd-EOB-DTPA (gadoxetate) is used in the same well plate. The OATP1B3 HEK 293 uptake of the test compound is calculated relative to gadoxetate (resulting in the unit % of RC1).

[3] = Partition coefficient (log P butanol/buffer); format: physicochemical; details: 50 mM Tris-HCl, pH 7.4, 10 μM, room temperature
Description: The partition coefficient P (log P=log(Cbutanol/Cbuffer)) was determined in buffered aqueous solution (10 μM of compound in 0.5 mL 50 mM Tris-HCl saturated with Butanol, pH 7.4) and 1-butanol 1+1 and the mixture was shaken for 2 h at room temperature (n=3). The Gd-concentrations in each phase. CObutano, and Cbuffer were measured by ICP-MS (The Chemistry of Contrast Agents in Medical Magnetic Resonance Imaging” 2nd Ed. Merbach A S, Helm L, Toth E, eds. Hoboken, NJ: Wiley 2013).

| Structure (SMILES) | r1 human plasma [1] [L/mmol/s] | r1 water [1] [L/mmol/s] | Uptake rat hepatocytes [2] | Uptake into OATP1B3-HEK 293 cells (OATP1B3) | Log P [3] |
| --- | --- | --- | --- | --- | --- |
| CCOc1ccc(CC2CN(CC(=O)[O-])CCN(CC(=O)[O-])CCN(CC(=O)O)CCN2CC(=O)[O-])cc1.[Gd+3] (stereo not drawn) [Example 7, Gadolinium-2,2′,2″-[10-(carboxymethyl)-2-(4-ethoxybenzyl)-1,4,7,10-tetraazacyclododecane-1,4,7-triyl]triacetate] | 6.2 | 4.5 | 73 % of RC1 | 36 % of RC1 | −1.32 |
| CCOCCOCCOCCOc1ccc(C[C@H]2CN(CC(=O)[O-])CCN(CC(=O)[O-])CCN(CC(=O)O)CCN2CC(=O)[O-])cc1.[Gd+3] [Example 5, Gadolinium-2,2′,2″-[(2S)-10-(carboxymethyl)-2-(4-{2-[2-(2-ethoxyethoxy)ethoxy]ethoxy}benzyl)-1,4,7,10-tetraazacyclododecane-1,4,7-triyl]triacetate] | 5.7 | 5.1 | 57 % of RC1 | 100 % of RC1 | −1.74 |
| CCOc1ccc(C[C@H]2CN(CC(=O)[O-])CCN(CC(=O)[O-])CCN(CC(=O)O)CCN2CC(=O)[O-])cc1.[Gd+3] (single isomer, unassigned; stereoisomer 1) [Example 10] | 6.4 | 4.8 | 104 % of RC1 | 80 % of RC1 | −1.34 |
| CCCCOc1ccc(C[C@H]2CN(CC(=O)[O-])CCN(CC(=O)[O-])CCN(CC(=O)O)CCN2CC(=O)[O-])cc1.[Gd+3] (single isomer, unassigned; stereoisomer 1) [Example 12] | 8.8 | 4.7 | 110 % of RC1 | 66 % of RC1 | −0.45 |
| COCCOCCOCCOc1ccc(C[C@H]2CN(CC(=O)[O-])CCN(CC(=O)[O-])CCN(CC(=O)O)CCN2CC(=O)[O-])cc1.[Gd+3] [Example 1, Gadolinium-2,2′,2″-[(2S)-10-(carboxymethyl)-2-(4-{2-[2-(2-methoxyethoxy)-ethoxy]ethoxy}benzyl)-1,4,7,10-tetraazacyclododecane-1,4,7-triyl]triacetate] | 6.6 | 5.1 | 47 % of RC1 | 79 % of RC1 | −2.12 |
| CCCCOc1ccc(C[C@H]2CN(CC(=O)[O-])CCN(CC(=O)[O-])CCN(CC(=O)O)CCN2CC(=O)[O-])cc1.[Gd+3] (single isomer, unassigned; stereoisomer 2) [Example 13] | 9.8 | 5.3 | 137 % of RC1 | 383 % of RC1 |  |
| COCCOCCOCCOc1ccc(C[C@@H]2CN(CC(=O)[O-])CCN(CC(=O)[O-])CCN(CC(=O)O)CCN2CC(=O)[O-])cc1.[Gd+3] [Example 3, Gadolinium-2,2′,2″-[(2R)-10-(carboxymethyl)-2-(4-{2-[2-(2-methoxyethoxy)ethoxy]ethoxy}benzyl)-1,4,7,10-tetraazacyclododecane-1,4,7-triyl]triacetate] | 6.8 | 5.0 | 49 % of RC1 | 28 % of RC1 | −2.05 |
| CCOc1ccc(C[C@H]2CN(CC(=O)[O-])CCN(CC(=O)[O-])CCN(CC(=O)O)CCN2CC(=O)[O-])cc1.[Gd+3] (single isomer, unassigned; stereoisomer 2) [Example 11] | 6.2 | 4.4 | 49 % of RC1 | 32 % of RC1 | −1.37 |
